# Test results taken from patent US7390925B2, “Oxime-containing acyl guanidines as beta-secretase inhibitors” (Bristol-Myers Squibb Company, priority 2006, dated 2008).
# Biological target: T1, BACE1 enzyme (Homo sapiens, UniProt P56817)
# T1 construct: derived from HEK293 cells (Simmons, N. L. (1990)); endogenous in cells; washed 48,000 x g pellet of cell homogenate
# Assay: Radioligand displacement assay with a radiolabeled BACE inhibitor on HEK293-9B.A1 cell homogenate
# Type: binding
# Details: displacement of 1 nM radioligand, HEK293-9B.A1 homogenate, pH 5.0, 1.5 hr at 25° C.; read-out: Activity Rating (activity based on IC50 values)
# Excerpt: There are a number of methods by which inhibitors of the BACE enzyme can be identified experimentally. The enzyme can be obtained from membrane samples from natural tissues or cultured cells or can be expressed recombinantly in a host cell by well known methods of molecular biology. The whole enzyme or a portion thereof can be expressed, for example, in bacterial, insect or mammalian cells to obtain a catalytically active enzyme species. The enzymatic activity and/or ligand binding capability of the enzyme can be assessed within these membrane samples, or the enzyme can be purified to varying extents. As an illustrative example, the nucleic acid sequence encoding the pro and catalytic domains of human BACE can be appended on the 5′ end with an untranslated and signal sequence from the gene for acetylcholinesterase, and on the 3′ end with a sequence encoding a poly-histidine tag. This cDNA can then be expressed in Drosophila melanogaster S2 cells in which the signal and pro sequences of the transcribed/translated protein are removed by cellular proteases and the catalytic domain, appended by a C-terminal poly-histidine tag, is secreted out into the cellular medium. The enzyme can then be purified from the culture medium by nickel affinity chromatography by methods well known to those trained in the art [Mallender, W. et al., (2001) “Characterization of recombinant, soluble beta-secretase from an insect cell expression system.” Mol. Pharmacol. 59: 619-626]. Similar strategies for expressing and purifying various forms of BACE in bacterial, mammalian and other cell types would be known to one skilled in the art. A preferred method for determining the potency of a test compound in binding to the BACE enzyme is by monitoring the displacement of a suitable radioligand.
# Radioligand displacement assays with a radiolabeled BACE inhibitor (WO 2004 013098, compound 3, where the methoxy group is substituted for C(^3H)3) were carried out using standard methods (Keen, M. (1999) in Receptor Binding Techniques (Walker, J. M. ed) p. 106 Humana Press, Totowa, N. J.). The HEK293-9B.A1 cell line, which overexpresses the BACE1 enzyme, was derived from HEK293 cells (Simmons, N. L. (1990) A cultured human renal epithelioid cell line responsive to vasoactive intestinal peptide. Exp. Physiol. 75:309-19.) by RAGE™ (Harrington, J. J. et al. (2001) Creation of genome-wide protein expression libraries using random activation of gene expression. Nat. Biotechnol. 19:440-5.; U.S. Pat. Nos. 6,410,266 and 6,361,972). T225 flask cultures of HEK293-9B.A1 were grown to 80% confluency in DMEM supplemented with 2 mM L-glutamine, 10 μg/ml penicillin, 10 μg/ml streptomycin, 3 μg/ml puromycin, 100 nM methotrexate, and 10% fetal bovine serum (Invitrogen, Carlsbad, Calif.), harvested, and resuspended at 2×10^8 cells per 10 ml of lysis buffer consisting of 50 mM HEPES pH 7.0 containing a protease inhibitor cocktail of AEBSF 104 μM, aprotinin 80 nM, leupeptin 2 μM, bestatin 4 μM, pepstatin A 1.5 μM, and E-64 1.4 μM (0.1% of protease inhibitor cocktail P8340, Sigma-Aldrich, St. Louis, Mo.) at 4° C. The resuspended cells were homogenized using a Polytron (Brinkman, Westbury, N.Y.) at setting 6 for 10 sec., then centrifuged at 48,000×g for 10 min. The resulting pellet was washed by repeating the resuspension, homogenization and centrifugation steps. The final pellet was resuspended in buffer at 4° C. to yield a total protein concentration of 5 mg/ml, then aliquots were frozen in liquid nitrogen for further storage at −70° C. Immediately before carrying out a binding assay, an aliquot of cell homogenate was thawed and diluted to a concentration of 100 μg/ml in assay buffer consisting of 50 mM HEPES pH 5.0 and 0.1% CHAPSO. […]
# T1 sequence (P56817 46-501): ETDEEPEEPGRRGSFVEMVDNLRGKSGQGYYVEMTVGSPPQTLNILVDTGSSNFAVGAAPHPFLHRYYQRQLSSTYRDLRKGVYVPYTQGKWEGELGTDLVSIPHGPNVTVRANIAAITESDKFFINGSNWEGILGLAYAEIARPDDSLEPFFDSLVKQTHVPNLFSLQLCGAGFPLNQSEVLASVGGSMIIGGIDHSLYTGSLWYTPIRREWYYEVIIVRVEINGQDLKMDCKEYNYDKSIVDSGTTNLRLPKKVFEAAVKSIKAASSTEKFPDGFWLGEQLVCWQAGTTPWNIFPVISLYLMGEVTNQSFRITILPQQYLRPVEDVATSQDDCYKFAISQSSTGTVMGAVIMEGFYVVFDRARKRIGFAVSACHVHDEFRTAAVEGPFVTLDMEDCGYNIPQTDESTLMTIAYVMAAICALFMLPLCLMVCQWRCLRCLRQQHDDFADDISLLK
row,Compound,IC50 [nM]
1,"COc1ccc(C(CC(=O)N=C(N)NCc2cc(Cl)c(NC(C)=O)c(Cl)c2)=NOCC(C)C)cc1 [Example 18, N-((4-acetamido-3,5-dichlorobenzylamino)(amino)-methylene)-3-(isobutoxyimino)-3-(4-methoxyphenyl)propanamide]",100 to 1000
2,"N-(2-(4-Acetamido-3,5-dichlorophenyl)-1-aminoethylidene)-3-(4-nitrophenyl)-3-(methoxyimino)propanamide [Example 16]",< 100
3,"N-(1-Amino-2-(4-amino-3,5-dichlorophenyl)ethylidene)-3-(methoxyimino)-3-(2-methoxyphenyl)propanamide [Example 13]",> 1000
4,N-(1-Amino-2-(3-chloro-4-(2-(dimethylamino)acetamido)-5-methylphenyl)-ethylidene)-3-(methoxyimino)-3-(4-methoxyphenyl)propanamide [Example 4],100 to 1000
5,"N-(2-(4-Acetamido-3,5-dichlorophenyl)-1-aminoethylidene)-3-(4-fluorophenyl)-3-(methoxyimino)propanamide [Example 15]",< 100
6,"CON=C(CC(=O)/N=C(\N)Cc1cc(Cl)c(NC(C)=O)c(Cl)c1)c1ccc(OC)cc1 [Example 1, N-(2-(4-Acetamido-3,5-dichlorophenyl)-1-aminoethylidene)-3-(methoxyimino)-3-(4-methoxyphenyl)propanamide]",< 100
7,"N-(1-Amino-2-(4-amino-3,5-dichlorophenyl)ethylidene)-3-(methoxyimino)-3-phenylpropanamide [Example 9]",100 to 1000
8,"N-(1-Amino-2-(3,5-dichlorophenyl)ethylidene)-3-(methoxyimino)-3-(4-methoxyphenyl)propanamide [Example 3]",> 1000
9,"CON=C(CC(=O)/N=C(\N)NCc1cc(Cl)c(NC(C)=O)c(Cl)c1)c1c[nH]c2ccccc12 [Example 21, N-((4-acetamido-3,5-dichlorobenzylamino)(amino)methylene)-3-(1H-indol-3-yl)-3-(methoxyimino)propanamide]",< 100
10,"N-(1-Amino-2-(4-amino-3,5-dichlorophenyl)ethylidene)-3-(methoxyimino)-3-(4-nitrophenyl)propanamide [Example 17]",100 to 1000
11,"CON=C(CC(=O)/N=C(\N)NCc1cc(Cl)c(N)c(Cl)c1)c1c[nH]c2ccccc12 [Example 20, N-((4-amino-3,5-dichlorobenzylamino)(amino)methylene)-3-(1H-indol-3-yl)-3-(methoxyimino)propanamide]",100 to 1000
12,"CON=C(CC(=O)/N=C(\N)NCc1cc(C)c(C(=O)CN(C)C)c(Cl)c1)c1c[nH]c2ccccc12 [Example 22, N-((3-chloro-4-(2-(dimethylamino)acetyl)-5-methylbenzylamino)(amino)-methylene)-3-(1H-indol-3-yl)-3-(methoxyimino)propanamide]",100 to 1000
13,"COc1ccc(C(CC(=O)/N=C(\N)NCc2cc(Cl)c(N)c(Cl)c2)=NOCC(C)C)cc1 [Example 19, N-((4-amino-3,5-dichlorobenzylamino)(amino)methylene)-3-(isobutoxyimino)-3-(4-methoxyphenyl)propanamide]",> 1000
14,"N-(2-(4-Acetamido-3,5-dichlorophenyl)-1-aminoethylidene)-3-(methoxyimino)-3-(3-methoxyphenyl)propanamide [Example 11]",100 to 1000
15,"N-(1-Amino-2-(4-amino-3,5-dichlorophenyl)ethylidene)-3-(ethoxyimino)-3-(4-methoxyphenyl)propanamide [Example 6]",100 to 1000
16,"N-(2-(4-Acetamido-3,5-dichlorophenyl)-1-aminoethylidene)-3-(methoxyimino)-3-(2-methoxyphenyl)propanamide [Example 12]",100 to 1000
17,"N-(1-Amino-2-(4-amino-3,5-dichlorophenyl)ethylidene)-3-(methoxyimino)-3-(4-methoxyphenyl)propanamide [Example 2]",100 to 1000
18,"N-(2-(4-Acetamido-3,5-dichlorophenyl)-1-aminoethylidene)-3-(ethoxyimino)-3-(4-methoxyphenyl)propanamide [Example 5]",< 100
